Source: patent US20240083896A1, “Nitrogen Containing 2,3-Dihydroquinazolinone Compounds as Nav1.8 Inhibitors” (GlaxoSmithKline Intellectual Property Development Limited, priority 2020, published 2024)

Target: human Nav1.8 (Homo sapiens (Human), UniProt Q9Y5Y9)
Test: QPatch 48 HTX electrophysiology assay, half inactivation state voltage protocol (V1/2), HEK293-Nav1.8 cells
Type: cell-based
Details: HEK293 cells expressing human Nav1.8, human Navβ1 and human TREK1; V1/2 protocol, P2 current; IC50 in molar; average where more than one run
Method: Human embryonic kidney 293 cells (HEK293) expressing human Nav1.8, human Navβ1 and human TREK1 (HEK293-Nav1.8) were grown at 37° C., 5% CO2 in 150 cm^2 flasks. HEK293-Nav1.8 were passaged every 2-3 days into T175 cell culture flasks when confluency reached 80-90%.
Pharmacological assessment of the compounds of the invention was performed using HEK293-Nav1.8 in combination with an assay developed on the QPatch 48 HTX electrophysiological system. HEK293-Nav1.8 were prepared on the day of use by removing culture media, washing in DPBS, adding Accutase (2 ml to cover the surface, aspirate 1 ml then 1.5 min at 37° C.) followed by addition of CHO-SFM II to stop the enzyme digestion and in order to obtain a suspension of 3×10^6 cell/mL.
Compound was prepared in an extracellular solution of the following composition: NaCl (145 mM), KCl (4 mM), CaCl2 (2 mM), MgCl2 (2 mM), HEPES (1 mM), Glucose (10 mM), pH 7.4 with NaOH Osmolality 300 mOsM/L. The intracellular solution was used of the following composition: CsF (115 mM), CsCl (20 mM), NaCl (5 mM), EGTA (10 mM), HEPES (10 mM), Sucrose (20 mM), pH 7.2 with CsOH Osmolality 310 mOsm/L.
Utilizing the voltage-clamp mode in the QPatch 48 HTX system a half inactivation state voltage protocol (V1/2) was used to determine pharmacological activity of compounds of the invention at Nav1.8 ion channels. A V1/2 protocol was utilized with the following voltage steps: a holding voltage of −100 mV was established followed by a 20 ms voltage step to 0 mV (P1), followed by an inactivating voltage step at −46 mV for 8 seconds, followed by a step to −100 mV for 20 ms, before a 20 ms step to 0 mV (P2) before returning to the holding voltage of −100 mV. This voltage protocol was repeated at a frequency of 0.07 Hz., current magnitude was quantified at the P2 step throughout the recording. Inhibition of the measured current amplitude with the compounds of the invention was analyzed by fitting a 4-8 point dose-response curve allowing determination of the fifty percent inhibition concentration (IC50). Within the QPatch HTX software, P2 current was normalized according to measurements made at baseline after compound and after positive reference compound and fit to the following equation: […]
To assess current run-down over the course of the experiment vehicle-only wells were utilized and the normalized current with vehicle-only (n.IVEH) was determined. To correct the compound response for run-down, the currents were corrected according the following formula: […]
Compounds of the invention were tested for activity against […]. Potency of the compounds of the invention is reported as a pIC50 value. The pIC50 value is the negative log of the IC50 value, wherein the IC50 value is the half maximal inhibitory concentration measured in molar (M). For compounds tested in more than one experimental run, the pIC50 value is reported as an average.

human Nav1.8, sequence (Q9Y5Y9 whole entry): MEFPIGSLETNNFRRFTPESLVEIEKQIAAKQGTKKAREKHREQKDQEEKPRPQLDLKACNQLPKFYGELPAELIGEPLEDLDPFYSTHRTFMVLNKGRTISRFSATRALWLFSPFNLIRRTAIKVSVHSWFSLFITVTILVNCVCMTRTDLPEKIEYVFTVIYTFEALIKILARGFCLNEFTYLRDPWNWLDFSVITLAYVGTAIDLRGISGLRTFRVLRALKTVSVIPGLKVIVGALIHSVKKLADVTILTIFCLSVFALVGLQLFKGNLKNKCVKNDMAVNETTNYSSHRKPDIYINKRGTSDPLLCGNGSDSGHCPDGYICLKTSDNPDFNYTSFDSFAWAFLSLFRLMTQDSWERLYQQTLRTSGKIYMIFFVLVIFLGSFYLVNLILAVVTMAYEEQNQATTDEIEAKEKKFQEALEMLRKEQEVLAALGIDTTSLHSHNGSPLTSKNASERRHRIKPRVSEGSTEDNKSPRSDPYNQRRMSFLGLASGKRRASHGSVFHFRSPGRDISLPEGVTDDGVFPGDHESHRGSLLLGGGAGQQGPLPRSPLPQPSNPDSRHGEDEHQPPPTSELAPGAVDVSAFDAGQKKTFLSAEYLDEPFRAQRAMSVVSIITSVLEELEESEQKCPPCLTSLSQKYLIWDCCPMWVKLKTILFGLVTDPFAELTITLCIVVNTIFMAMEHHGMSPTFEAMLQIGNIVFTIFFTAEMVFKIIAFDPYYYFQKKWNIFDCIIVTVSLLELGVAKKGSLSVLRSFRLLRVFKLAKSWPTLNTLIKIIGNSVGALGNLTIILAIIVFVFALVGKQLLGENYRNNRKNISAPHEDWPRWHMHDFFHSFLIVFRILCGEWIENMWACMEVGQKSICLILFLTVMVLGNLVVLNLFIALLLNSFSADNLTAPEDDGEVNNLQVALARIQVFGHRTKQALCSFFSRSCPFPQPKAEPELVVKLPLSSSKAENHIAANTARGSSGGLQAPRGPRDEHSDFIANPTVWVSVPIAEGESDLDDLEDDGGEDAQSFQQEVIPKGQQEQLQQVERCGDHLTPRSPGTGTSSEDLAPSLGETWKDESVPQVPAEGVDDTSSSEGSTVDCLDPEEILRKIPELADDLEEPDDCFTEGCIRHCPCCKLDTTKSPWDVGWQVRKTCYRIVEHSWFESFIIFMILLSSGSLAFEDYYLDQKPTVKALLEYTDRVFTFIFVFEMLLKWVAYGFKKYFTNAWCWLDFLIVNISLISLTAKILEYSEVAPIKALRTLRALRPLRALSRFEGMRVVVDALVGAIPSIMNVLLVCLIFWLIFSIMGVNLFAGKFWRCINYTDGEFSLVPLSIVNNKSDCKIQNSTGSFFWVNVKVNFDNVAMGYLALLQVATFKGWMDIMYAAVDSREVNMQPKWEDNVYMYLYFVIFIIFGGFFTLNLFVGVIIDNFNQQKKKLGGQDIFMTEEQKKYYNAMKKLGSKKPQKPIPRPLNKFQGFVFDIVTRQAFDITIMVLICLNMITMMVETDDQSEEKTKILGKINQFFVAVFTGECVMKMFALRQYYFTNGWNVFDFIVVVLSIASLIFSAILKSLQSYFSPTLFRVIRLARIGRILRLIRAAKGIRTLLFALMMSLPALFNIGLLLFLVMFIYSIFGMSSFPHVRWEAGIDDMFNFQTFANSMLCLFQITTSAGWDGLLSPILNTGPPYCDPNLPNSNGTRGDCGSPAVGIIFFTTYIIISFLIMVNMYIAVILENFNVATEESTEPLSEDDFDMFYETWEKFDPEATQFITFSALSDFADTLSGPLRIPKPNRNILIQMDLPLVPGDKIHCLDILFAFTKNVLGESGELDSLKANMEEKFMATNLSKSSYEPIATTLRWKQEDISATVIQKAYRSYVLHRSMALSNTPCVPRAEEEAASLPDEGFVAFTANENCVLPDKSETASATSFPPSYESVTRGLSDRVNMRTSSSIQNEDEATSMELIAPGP
human Nav1.8, sequence (Q07699 19-218 partner): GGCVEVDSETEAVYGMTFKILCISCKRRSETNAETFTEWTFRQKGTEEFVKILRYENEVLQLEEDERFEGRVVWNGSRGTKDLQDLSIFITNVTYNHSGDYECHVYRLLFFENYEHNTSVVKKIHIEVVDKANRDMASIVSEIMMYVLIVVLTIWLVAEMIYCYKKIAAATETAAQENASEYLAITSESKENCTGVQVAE

SMILES	[Nav1.8] pIC50
Cc1cc(F)ccc1N1CN(c2ccc(=O)[nH]c2C)C(=O)c2ncc(C(F)(F)F)cc21 [Example 1, 1-(4-Fluoro-2-methylphenyl)-3-(2-methyl-6-oxo-1,6-dihydropyridin-3-yl)-7-(trifluoromethyl)-2,3-dihydropyrido[3,2-d]pyrimidin-4(1H)-one]	5.9
Cc1cc(F)ccc1N1CN(c2ccc(=O)[nH]c2C)C(=O)c2cnc(C(F)(F)F)nc21 [Example 2, 1-(4-Fluoro-2-methylphenyl)-3-(2-methyl-6-oxo-1,6-dihydropyridin-3-yl)-7-(trifluoromethyl)-2,3-dihydropyrimido[4,5-d]pyrimidin-4(1H)-one]	6
Cc1[nH]c(=O)ccc1N1CN(c2ccc(F)cc2C(C)C)c2cnc(Cl)cc2C1=O [Example 3, 6-Chloro-1-(4-fluoro-2-isopropylphenyl)-3-(2-methyl-6-oxo-1,6-dihydropyridin-3-yl)-2,3-dihydropyrido[3,4-d]pyrimidin-4(1H)-one]	7
Cc1cc(F)ccc1N1CN(c2ccc(=O)[nH]c2C)C(=O)c2cnc(C(F)(F)F)cc21 [Example 4, 1-(4-Fluoro-2-methylphenyl)-3-(2-methyl-6-oxo-1,6-dihydropyridin-3-yl)-7-(trifluoromethyl)-2,3-dihydropyrido[4,3-d]pyrimidin-4(1H)-one]	6.8
Cc1[nH]c(=O)ccc1N1CN(c2ccc(F)cc2C(C)C)c2cnc(C(F)(F)F)cc2C1=O [Example 5, 1-(4-Fluoro-2-isopropylphenyl)-3-(2-methyl-6-oxo-1,6-dihydropyridin-3-yl)-6-(trifluoromethyl)-2,3-dihydropyrido[3,4-d]pyrimidin-4(1H)-one]	7.2
Cc1cc(F)ccc1N1CN(c2ccc(=O)[nH]c2C)C(=O)c2cc(C(F)(F)F)ncc21 [Example 6, 1-(4-Fluoro-2-methylphenyl)-3-(2-methyl-6-oxo-1,6-dihydropyridin-3-yl)-6-(trifluoromethyl)-2,3-dihydropyrido[3,4-d]pyrimidin-4(1H)-one]	7
Cc1cc(F)ccc1N1CN(c2ccc(=O)[nH]c2C)C(=O)c2ncc(C(F)(F)F)nc21 [Example 7, 1-(4-Fluoro-2-methylphenyl)-3-(2-methyl-6-oxo-1,6-dihydropyridin-3-yl)-7-(trifluoromethyl)-2,3-dihydropteridin-4(1H)-one]	5.4
Cc1cc(F)ccc1N1CN(c2ccc(=O)[nH]c2C)C(=O)c2nc(C(F)(F)F)cnc21 [Example 8, 1-(4-Fluoro-2-methylphenyl)-3-(2-methyl-6-oxo-1,6-dihydropyridin-3-yl)-6-(trifluoromethyl)-2,3-dihydropteridin-4(1H)-one]	5.1
Cc1[nH]c(=O)ccc1N1CN(c2ccc(F)cc2C(C)C)c2ccc(Cl)nc2C1=O [Example 9, 6-Chloro-1-(4-fluoro-2-isopropylphenyl)-3-(2-methyl-6-oxo-1,6-dihydropyridin-3-yl)-2,3-dihydropyrido[3,2-d]pyrimidin-4(1H)-one]	5.8
CCc1c(N2CN(c3ccc(=O)[nH]c3C)C(=O)c3cc(C(F)(F)F)ncc32)ccc(F)c1F [Example 10, 1-(2-Ethyl-3,4-difluorophenyl)-3-(2-methyl-6-oxo-1,6-dihydropyridin-3-yl)-6-(trifluoromethyl)-2,3-dihydropyrido[3,4-d]pyrimidin-4(1H)-one]	7.5
Cc1cc(F)ccc1N1CN(c2cc(F)c(=O)[nH]c2C)C(=O)c2cc(C(F)(F)F)ncc21 [Example 11, 3-(5-Fluoro-2-methyl-6-oxo-1,6-dihydropyridin-3-yl)-1-(4-fluoro-2-methylphenyl)-6-(trifluoromethyl)-2,3-dihydropyrido[3,4-d]pyrimidin-4(1H)-one]	6.5
Cc1cc(F)ccc1N1CN(c2ccc(=O)[nH]c2C)C(=O)c2ccncc21 [Example 12, 1-(4-Fluoro-2-methylphenyl)-3-(2-methyl-6-oxo-1,6-dihydropyridin-3-yl)-2,3-dihydropyrido[3,4-d]pyrimidin-4(1H)-one]	5.3
CCc1cc(F)ccc1N1CN(c2ccc(=O)[nH]c2C)C(=O)c2cc(C(F)(F)F)ncc21 [Example 14, 1-(2-Ethyl-4-fluorophenyl)-3-(2-methyl-6-oxo-1,6-dihydropyridin-3-yl)-6-(trifluoromethyl)-2,3-dihydropyrido[3,4-d]pyrimidin-4(1H)-one]	7.1
Cc1cc(F)ccc1N1CN(c2ccc(=O)[nH]c2C)C(=O)c2cc(Cl)ncc21 [Example 15, 6-Chloro-1-(4-fluoro-2-methylphenyl)-3-(2-methyl-6-oxo-1,6-dihydropyridin-3-yl)-2,3-dihydropyrido[3,4-d]pyrimidin-4(1H)-one]	6.6
Cc1cc(OC(F)(F)F)ccc1N1CN(c2ccc(=O)[nH]c2C)C(=O)c2cc(C(F)(F)F)ncc21 [Example 16, 1-(2-Methyl-4-(trifluoromethoxy)phenyl)-3-(2-methyl-6-oxo-1,6-dihydropyridin-3-yl)-6-(trifluoromethyl)-2,3-dihydropyrido[3,4-d]pyrimidin-4(1H)-one]	7.9
Cc1[nH]c(=O)ccc1N1CN(c2ccc(F)c(F)c2C)c2cnc(C(F)(F)F)cc2C1=O [Example 17, 1-(3,4-Difluoro-2-methylphenyl)-3-(2-methyl-6-oxo-1,6-dihydropyridin-3-yl)-6-(trifluoromethyl)-2,3-dihydropyrido[3,4-d]pyrimidin-4(1H)-one]	7.2
Cc1cc(F)ccc1N1CN(c2ccc(=O)[nH]c2C)C(=O)c2cnc(Cl)cc21 [Example 18, 7-Chloro-1-(4-fluoro-2-methylphenyl)-3-(2-methyl-6-oxo-1,6-dihydropyridin-3-yl)-2,3-dihydropyrido[4,3-d]pyrimidin-4(1H)-one]	6.6
Cc1cc(F)ccc1N1CN(c2ccc(=O)[nH]c2C)C(=O)c2cnc(C#N)cc21 [Example 19, 1-(4-Fluoro-2-methylphenyl)-3-(2-methyl-6-oxo-1,6-dihydropyridin-3-yl)-4-oxo-1,2,3,4-tetrahydropyrido[4,3-d]pyrimidine-7-carbonitrile]	5.4
CCc1cc(F)ccc1N1CN(c2ccc(=O)[nH]c2C)C(=O)c2cnc(C(F)(F)F)cc21 [Example 20, 1-(2-Ethyl-4-fluorophenyl)-3-(2-methyl-6-oxo-1,6-dihydropyridin-3-yl)-7-(trifluoromethyl)-2,3-dihydropyrido[4,3-d]pyrimidin-4(1H)-one]	7.1
Cc1cc(OC(F)(F)F)ccc1N1CN(c2cc(F)c(=O)[nH]c2C)C(=O)c2cc(C(F)(F)F)ncc21 [Example 21, 3-(5-Fluoro-2-methyl-6-oxo-1,6-dihydropyridin-3-yl)-1-(2-methyl-4-(trifluoromethoxy)phenyl)-6-(trifluoromethyl)-2,3-dihydropyrido[3,4-d]pyrimidin-4(1H)-one]	7.4
Cc1cc(F)ccc1N1CN(c2ccc(=O)[nH]c2C)C(=O)c2cc(C#N)ncc21 [Example 22, 1-(4-Fluoro-2-methylphenyl)-3-(2-methyl-6-oxo-1,6-dihydropyridin-3-yl)-4-oxo-1,2,3,4-tetrahydropyrido[3,4-d]pyrimidine-6-carbonitrile]	5.4
Cc1c[n+]([O-])ccc1N1CN(c2ccc(OC(F)(F)F)cc2C)c2cnc(C(F)(F)F)cc2C1=O [Example 23, 3-Methyl-4-(1-(2-methyl-4-(trifluoromethoxy)phenyl)-4-oxo-6-(trifluoromethyl)-1,4-dihydropyrido[3,4-d]pyrimidin-3(2H)-yl)pyridine 1-oxide]	6.7
